The values below come from patent US9540399B2, “Quinolone derivatives” (priority 2013, dated 2017).

Broadly, the MIC is the lowest concentration found to suppress growth.

Values after ≈ are worked out from the molar mass of the structure shown.

Common to all, as to assay: Bacterial growth minimal inhibitory concentration, microdilution
What all share (format): cell-based
(In broth dilution the organism is exposed to a series of concentrations in liquid medium.)

Test [1] concerns Moraxella catarrhalis A894. Particulars: quinolone-sensitive strain, cation-adjusted Mueller Hinton Broth. On the procedure: (§1) Minimal Inhibitory Concentrations (MICs; mg/l) were determined in cation-adjusted Mueller Hinton Broth by a microdilution method following the description given in “Methods for Dilution Antimicrobial Susceptibility Tests for Bacteria that Grow Aerobically”, Approved standard, 7th ed., Clinical and Laboratory Standards Institute (CLSI) Document M7-A7, Wayne, Pa., USA, 2006.
(§2) All Example compounds were tested against several Gram positive and especially Gram negative bacteria. […] Staphylococcus aureus A798, Klebsiella pneumoniae A651 and Acinetobacter baumanii T6474 are multiply-resistant strains (in particular quinolone-resistant), while Moraxella catarrhalis A894 and E. coli ATCC 25922 are quinolone-sensitive strains.

For test [2], the system named is Acinetobacter baumanii T6474. Conditions: Acinetobacter baumannii, multiply-resistant, quinolone-resistant strain, cation-adjusted Mueller Hinton Broth. The method, then: as §1, §2
Test [3] has as its system Staphylococcus aureus A798. Conditions: multiply-resistant, quinolone-resistant strain, cation-adjusted Mueller Hinton Broth, read-out: MIC for S. aureus A798. On the procedure: as §1, §2
The next test relates to E. coli ATCC 25922. Particulars: Escherichia coli, ATCC25922; quinolone-sensitive strain; cation-adjusted Mueller Hinton Broth. The method, then:
as §1, §2

Test [4] has as its system Klebsiella pneumoniae A651. Conditions: multiply-resistant, quinolone-resistant strain, cation-adjusted Mueller Hinton Broth, read-out: MIC for K. pneumoniae A651. On the procedure:
as §1, §2

On to `O=C1CSc2ccc(CNC[C@H]3CC[C@H](Nc4nc5c(cc4F)c(=O)c(C(=O)O)cn5C4CC4)CC3)nc2N1` [Example 1, trans-1-Cyclopropyl-6-fluoro-4-oxo-7-(4-{[(3-oxo-3,4-dihydro-2H-pyrido[3,2-b][1,4]thiazin-6-ylmethyl)-amino]-methyl}-cyclohexylamino)-1,4-dihydro-[1,8]naphthyridine-3-carboxylic acid], for which the MIC in test [1] was found to be 0.125 µg/mL (≈ 0.226 µM); in test [2] it was 0.125 µg/mL (≈ 0.226 µM); in test [3], 1 µg/mL (≈ 1.81 µM); in the test with E. coli ATCC 25922, 0.25 µg/mL (≈ 0.452 µM); in test [4], 0.5 µg/mL (≈ 0.905 µM).

Consider `O=C1CSc2ccc(CN[C@H]3CC[C@H](Nc4nc5c(cc4F)c(=O)c(C(=O)O)cn5C4CC4)CC3)nc2N1` [Example 2, trans-1-Cyclopropyl-6-fluoro-4-oxo-7-{4-[(3-oxo-3,4-dihydro-2H-pyrido[3,2-b][1,4]thiazin-6-ylmethyl)-amino]-cyclohexylamino}-1,4-dihydro-[1,8]naphthyridine-3-carboxylic acid], for which the MIC turned out to be 0.25 µg/mL (≈ 0.464 µM) in test [1]; 0.5 µg/mL (≈ 0.928 µM) in test [2]; 4 µg/mL (≈ 7.43 µM) in test [3]; 0.5 µg/mL (≈ 0.928 µM) with E. coli ATCC 25922; 1 µg/mL (≈ 1.86 µM) in test [4].

As for `O=C1CSc2ccc(CNC3CCN(CCc4nc5c(cc4F)c(=O)c(C(=O)O)cn5C4CC4)CC3)nc2N1` [Example 3, 1-Cyclopropyl-6-fluoro-4-oxo-7-(2-{4-[(3-oxo-3,4-dihydro-2H-pyrido[3,2-b][1,4]thiazin-6-ylmethyl)-amino]-piperidin-1-yl}-ethyl)-1,4-dihydro-[1,8]naphthyridine-3-carboxylic acid], the MIC amounted to 0.5 µg/mL (≈ 0.905 µM) in test [1]; 4 µg/mL (≈ 7.24 µM) in test [2]; 2 µg/mL (≈ 3.62 µM) in test [3]; 0.25 µg/mL (≈ 0.452 µM) against E. coli ATCC 25922; 1 µg/mL (≈ 1.81 µM) in test [4].

Take `O=C1CSc2ccc(CNCCN3CCN(c4nc5c(cc4F)c(=O)c(C(=O)O)cn5C4CC4)CC3)nc2N1` [Example 4, 1-Cyclopropyl-6-fluoro-4-oxo-7-(4-{2-[(3-oxo-3,4-dihydro-2H-pyrido[3,2-b][1,4]thiazin-6-ylmethyl)-amino]-ethyl}-piperazin-1-yl)-1,4-dihydro-[1,8]naphthyridine-3-carboxylic acid]: the MIC in test [1] is 0.25 µg/mL (≈ 0.452 µM); in test [2] it was 2 µg/mL (≈ 3.61 µM); in test [3] it was above 8 µg/mL; against E. coli ATCC 25922 it was 1 µg/mL (≈ 1.81 µM); in test [4] it was 2 µg/mL (≈ 3.61 µM).

`O=C1CSc2ccc(CNCCC3CCN(c4nc5c(cc4F)c(=O)c(C(=O)O)cn5C4CC4)CC3)nc2N1` [Example 5, 1-Cyclopropyl-6-fluoro-4-oxo-7-(4-{2-[(3-oxo-3,4-dihydro-2H-pyrido[3,2-b][1,4]thiazin-6-ylmethyl)-amino]-ethyl}-piperidin-1-yl)-1,4-dihydro-[1,8]naphthyridine-3-carboxylic acid]: the MIC is 0.125 µg/mL (≈ 0.226 µM) in test [1]; 1 µg/mL (≈ 1.81 µM) in test [2]; 8 µg/mL (≈ 14.5 µM) in test [3]; 0.5 µg/mL (≈ 0.905 µM) in the test on E. coli ATCC 25922; 2 µg/mL (≈ 3.62 µM) in test [4].

Take `O=C1CSc2ccc(CN3CCC(CCNc4nc5c(cc4F)c(=O)c(C(=O)O)cn5C4CC4)CC3)nc2N1` [Example 6, 1-Cyclopropyl-6-fluoro-4-oxo-7-{2-[1-(3-oxo-3,4-dihydro-2H-pyrido[3,2-b][1,4]thiazin-6-ylmethyl)-piperidin-4-yl]-ethylamino}-1,4-dihydro-[1,8]naphthyridine-3-carboxylic acid]: the MIC in test [1] was 0.5 µg/mL (≈ 0.905 µM); in test [2], 0.5 µg/mL (≈ 0.905 µM); in test [3], above 8 µg/mL; in the test on E. coli ATCC 25922, 2 µg/mL (≈ 3.62 µM); in test [4], 2 µg/mL (≈ 3.62 µM).

Turning to `O=C1CSc2ccc(CNCC3CCN(c4nc5c(cc4F)c(=O)c(C(=O)O)cn5C4CC4)CC3)nc2N1` [Example 7, 1-Cyclopropyl-6-fluoro-4-oxo-7-(4-{[(3-oxo-3,4-dihydro-2H-pyrido[3,2-b][1,4]thiazin-6-ylmethyl)-amino]-methyl}-piperidin-1-yl)-1,4-dihydro-[1,8]naphthyridine-3-carboxylic acid], the MIC in test [1] was 0.031 µg/mL (≈ 0.0576 µM); in test [2], 2 µg/mL (≈ 3.71 µM); in test [3], above 8 µg/mL; in the test on E. coli ATCC 25922, 0.5 µg/mL (≈ 0.928 µM); in test [4], 4 µg/mL (≈ 7.43 µM).

Turning to `O=C1COc2ccc(CNC[C@H]3CC[C@H](Nc4nc5c(cc4F)c(=O)c(C(=O)O)cn5C4CC4)CC3)nc2N1` [Example 8, trans-1-Cyclopropyl-6-fluoro-4-oxo-7-(4-{[(3-oxo-3,4-dihydro-2H-pyrido[3,2-b][1,4]oxazin-6-ylmethyl)-amino]-methyl}-cyclohexylamino)-1,4-dihydro-[1,8]naphthyridine-3-carboxylic acid], the MIC in test [1] is 0.25 µg/mL (≈ 0.466 µM); in test [2], above 8 µg/mL; in test [3], above 8 µg/mL; with E. coli ATCC 25922 it was 0.5 µg/mL (≈ 0.932 µM); in test [4], 8 µg/mL (≈ 14.9 µM).

For `O=C1CSc2ccc(CNCC3CCN(Cc4nc5c(cc4F)c(=O)c(C(=O)O)cn5C4CC4)CC3)nc2N1` [Example 9, 1-Cyclopropyl-6-fluoro-4-oxo-7-(4-{[(3-oxo-3,4-dihydro-2H-pyrido[3,2-b][1,4]thiazin-6-ylmethyl)-amino]-methyl}-piperidin-1-ylmethyl)-1,4-dihydro-[1,8]naphthyridine-3-carboxylic acid], the MIC was 1 µg/mL (≈ 1.81 µM) in test [1]; 8 µg/mL (≈ 14.5 µM) in test [2]; above 8 µg/mL in test [3]; 1 µg/mL (≈ 1.81 µM) in the test on E. coli ATCC 25922; 2 µg/mL (≈ 3.62 µM) in test [4].

For the molecule `O=C1CSc2ccc(CNC3CCN(c4nc5c(cc4F)c(=O)c(C(=O)O)cn5C4CC4)CC3)nc2N1` [Example 10, 1-Cyclopropyl-6-fluoro-4-oxo-7-{4-[(3-oxo-3,4-dihydro-2H-pyrido[3,2-b][1,4]thiazin-6-ylmethyl)-amino]-piperidin-1-yl}-1,4-dihydro-[1,8]naphthyridine-3-carboxylic acid], the MIC in test [1] was 0.063 µg/mL (≈ 0.12 µM); in test [2] it was 0.25 µg/mL (≈ 0.477 µM); in test [3] it was 4 µg/mL (≈ 7.63 µM); against E. coli ATCC 25922, 0.5 µg/mL (≈ 0.953 µM); in test [4] it was 1 µg/mL (≈ 1.91 µM).

Regarding `O=C1CSc2ccc(CNCCN3CCN(c4cc5c(cc4F)c(=O)c(C(=O)O)cn5C4CC4)CC3)nc2N1` [Example 11, 1-Cyclopropyl-6-fluoro-4-oxo-7-(4-{2-[(3-oxo-3,4-dihydro-2H-pyrido[3,2-b][1,4]thiazin-6-ylmethyl)-amino]-ethyl}-piperazin-1-yl)-1,4-dihydro-quinoline-3-carboxylic acid], the MIC in test [1] was 1 µg/mL (≈ 1.81 µM); in test [2], above 8 µg/mL; in test [3], 8 µg/mL (≈ 14.5 µM); with E. coli ATCC 25922 it was 2 µg/mL (≈ 3.62 µM); in test [4], 8 µg/mL (≈ 14.5 µM).

Consider `O=C1COc2ccc(CNCCN3CCN(c4nc5c(cc4F)c(=O)c(C(=O)O)cn5C4CC4)CC3)nc2N1` [Example 12, 1-Cyclopropyl-6-fluoro-4-oxo-7-(4-{2-[(3-oxo-3,4-dihydro-2H-pyrido[3,2-b][1,4]oxazin-6-ylmethyl)-amino]-ethyl}-piperazin-1-yl)-1,4-dihydro-[1,8]naphthyridine-3-carboxylic acid], for which the MIC in test [1] was 1 µg/mL (≈ 1.86 µM); in test [2] it was 8 µg/mL (≈ 14.9 µM); in test [3], above 8 µg/mL; in the test with E. coli ATCC 25922, 2 µg/mL (≈ 3.72 µM); in test [4] it was 8 µg/mL (≈ 14.9 µM).

For `Cn1cc(C(=O)O)c(=O)c2cc(F)c(N[C@H]3CC[C@H](CNCc4ccc5c(n4)NC(=O)CS5)CC3)nc21` [Example 13, trans-6-Fluoro-1-methyl-4-oxo-7-(4-{[(3-oxo-3,4-dihydro-2H-pyrido[3,2-b][1,4]thiazin-6-ylmethyl)-amino]-methyl}-cyclohexylamino)-1,4-dihydro-[1,8]naphthyridine-3-carboxylic acid], the MIC worked out at 0.031 µg/mL (≈ 0.0589 µM) in test [1]; 0.125 µg/mL (≈ 0.237 µM) in test [2]; 1 µg/mL (≈ 1.9 µM) in test [3]; 0.063 µg/mL (≈ 0.12 µM) against E. coli ATCC 25922; 0.25 µg/mL (≈ 0.475 µM) in test [4].

On to `Cn1cc(C(=O)O)c(=O)c2cc(F)c(N[C@H]3CC[C@H](CNCc4ccc5c(n4)NC(=O)CO5)CC3)nc21` [Example 14, trans-6-Fluoro-1-methyl-4-oxo-7-(4-{[(3-oxo-3,4-dihydro-2H-pyrido[3,2-b][1,4]oxazin-6-ylmethyl)-amino]-methyl}-cyclohexylamino)-1,4-dihydro-[1,8]naphthyridine-3-carboxylic acid], for which the MIC in test [1] was determined as 0.063 µg/mL (≈ 0.123 µM); in test [2], 1 µg/mL (≈ 1.96 µM); in test [3] it was 8 µg/mL (≈ 15.7 µM); against E. coli ATCC 25922, 0.125 µg/mL (≈ 0.245 µM); in test [4], 1 µg/mL (≈ 1.96 µM).

For `CCn1cc(C(=O)O)c(=O)c2cc(F)c(N[C@H]3CC[C@H](CNCc4ccc5c(n4)NC(=O)CS5)CC3)nc21` [Example 15, trans-1-Ethyl-6-fluoro-4-oxo-7-(4-{[(3-oxo-3,4-dihydro-2H-pyrido[3,2-b][1,4]thiazin-6-ylmethyl)-amino]-methyl}-cyclohexylamino)-1,4-dihydro-[1,8]naphthyridine-3-carboxylic acid], the MIC in test [1] amounted to 0.031 µg/mL (≈ 0.0573 µM); in test [2], 0.063 µg/mL (≈ 0.117 µM); in test [3], 1 µg/mL (≈ 1.85 µM); with E. coli ATCC 25922, 0.125 µg/mL (≈ 0.231 µM); in test [4], 0.5 µg/mL (≈ 0.925 µM).

With `Cn1cc(C(=O)O)c(=O)c2cc(F)c(N3CCC(CCNCc4ccc5c(n4)NC(=O)CO5)CC3)nc21` [Example 16, 6-Fluoro-1-methyl-4-oxo-7-(4-{2-[(3-oxo-3,4-dihydro-2H-pyrido[3,2-b][1,4]oxazin-6-ylmethyl)-amino]-ethyl}-piperidin-1-yl)-1,4-dihydro-[1,8]naphthyridine-3-carboxylic acid], the MIC in test [1] turned out to be 0.125 µg/mL (≈ 0.245 µM); in test [2] it was 0.5 µg/mL (≈ 0.979 µM); in test [3], 2 µg/mL (≈ 3.92 µM); against E. coli ATCC 25922, 0.25 µg/mL (≈ 0.49 µM); in test [4], 1 µg/mL (≈ 1.96 µM).
